Assays:
[1] = tested on: HCV replicon (Clone A cells, Huh7, subgenomic hepatits C virus RNA); assay: HCV Neo screening assay (HCV replicon, NPTII ELISA); assay type: cell-based, hepatitis C virus; conditions: for EC50 / inhibition at 25 µM: Hepatitis C virus, Huh-7; for EC50: Secondary Data, HCV; for inhibition at 25 µM: primary screening, 25 μM final concentration, 24 hours, percent inhibition of viral replication, read-out: HCV Inh; for HCV TI: therapeutic index CC50/EC50, HCV
RSV minigenome = assay: RSV minigenome-dependent β-galactosidase expression assay (RSV β-Gal); assay type: cell-based, respiratory syncytial virus; conditions: for EC50 / inhibition at 25 µM: human respiratory syncytial virus; for EC50: Secondary Data, RSV, read-out: RSV EC50; for inhibition at 25 µM: primary screening, 25 μM final concentration, 24 hours, percent inhibition of viral replication, read-out: RSV Inh; for RSV TI: therapeutic index CC50/EC50, RSV
WNV (WN-hRuPac cells) = assay: WNV antiviral activity, WN-hRuPac cells, Renilla luciferase; assay type: cell-based, West Nile virus; conditions: for EC50 / inhibition at 25 µM: West Nile virus; for EC50: Secondary Data, WNV, read-out: WNV EC50; for inhibition at 25 µM: primary screening, 25 μM final concentration, 24 hours, percent inhibition of viral replication, read-out: WNV Inh; for WNV TI: therapeutic index CC50/EC50, WNV
YFV (YF-hRuPac cells) = assay: microbe, parasite or virus in culture; assay type: cell-based, yellow fever virus; conditions: for inhibition at 25 µM / EC50: Yellow fever virus; for inhibition at 25 µM: 24 h, read-out: YFV Inh; for EC50: read-out: YFV EC50
DNG (D2-hRuPac cells) = assay: DNG antiviral activity, D2-hRuPac cells, Renilla luciferase; assay type: cell-based, Dengue fever virus; conditions: Dengue virus, secondary screening
EBOV minigenome = assay: microbe, parasite or virus in culture; assay type: cell-based, Ebola virus; conditions: Zaire ebolavirus; for inhibition at 25 µM: 24 h, read-out: EBOV Inh; for EC50: read-out: EBOV EC50
SINV (SR19-F-luc cells) = assay: SINV antiviral activity, SR19-F-luc cells, Firefly luciferase; assay type: cell-based; conditions: Sindbis virus; for inhibition at 25 µM: primary screening, 25 μM final concentration, 24 hours, percent inhibition of viral replication, read-out: SINV Inh; for EC50: secondary screening, SR19-F-luc cells

Row | SMILES | inhibition at 25 µM [1] [%] | EC50 (RSV minigenome) [µM] | inhibition at 25 µM (RSV minigenome) [%] | RSV TI (RSV minigenome) | EC50 (WNV (WN-hRuPac cells)) [µM] | inhibition at 25 µM (WNV (WN-hRuPac cells)) [%] | YFV TI (YFV (YF-hRuPac cells)) | inhibition at 25 µM (YFV (YF-hRuPac cells)) [%] | EC50 (YFV (YF-hRuPac cells)) [µM] | EC50 (DNG (D2-hRuPac cells)) [µM] | inhibition at 25 µM (EBOV minigenome) [%] | EC50 (EBOV minigenome) [µM] | inhibition at 25 µM (SINV (SR19-F-luc cells)) [%] | EC50 (SINV (SR19-F-luc cells)) [µM] | CC50 (in vitro; DNG CC50) [µM] | CC50 (in vitro; EBOV CC50) [µM] | CC50 (in vitro; RSV CC50) [µM] | CC50 (in vitro; SINV CC50) [µM] | CC50 (in vitro; WNV CC50) [µM] | CC50 (in vitro; YFV CC50) [µM] | other results
1 | Cc1ccc2nc3c(c(Nc4ccc(O)cc4)c2c1)CCC3 [Compound 16] | 119 | 7.1 | 88.5 | 4.81 | 13.1 | 66.8 | 1.63 | 75.9 | 21 | 9.44 | 7.83 | 29.9 | 79.5 | 1.52 | 34.1 | 34.1 | 34.1 | 34.1 | 34.1 | 34.1 | EC50 [1]: 9 µM; HCV TI [1]: 3.72; WNV TI (WNV (WN-hRuPac cells)): 2.61; CC50 (in vitro; HCV CC50): 33.5 µM
2 | CCOc1ccc2nc(C)cc(Nc3cc(Cl)ccc3OC)c2c1 [Compound 58] | 137 | 2.34 | 99.8 | 7.98 | 3.8 | 91.5 | 7.04 | 96.6 | 2.65 | 6.91 | 80.2 | 4.94 | 92.8 | 4.2 | 18.7 | 18.7 | 18.7 | 18.7 | 18.7 | 18.7 | EC50 [1]: 4.95 µM; HCV TI [1]: 2.38; WNV TI (WNV (WN-hRuPac cells)): 4.91; CC50 (in vitro; HCV CC50): 11.8 µM
3 | CCCOC(=O)c1ccc(Nc2cc(C)nc3ccc(C(=O)OCC)cc23)cc1 [Compound 63] | 57.2 | 72.2 | 56.4 | 0.97 | 44.1 | 55 | 1.35 | 54.2 | 51.8 | 44.8 | 92 | 9.03 | 53.3 | ≥ 75 | 70.1 | 70.1 | 70.1 | 70.1 | 70.1 | 70.1 | WNV TI (WNV (WN-hRuPac cells)): 1.59
4 | COc1ccc(Nc2cc(C)nc3ccccc23)cc1 [Compound 20] | 14.8 | 8.52 | 61.4 | 8.8 | ≥ 75 | 38.4 | 2.83 | 51 | 26.5 | 42 | 21 | 50.1 | 75.5 | 4.28 | ≥ 75 | ≥ 75 | ≥ 75 | ≥ 75 | ≥ 75 | ≥ 75 | CC50 (in vitro; HCV CC50): 64.2 µM
5 | COC(=O)c1ccc(Nc2cc(C)nc3c(C)cccc23)cc1 [Compound 61] | 80.1 | 32.1 | 58.7 | 1.43 | 22.3 | 96.9 | 4.54 | 97.7 | 10.1 | 14.1 | 40.9 | 70.6 | 37.5 | 17.3 | 45.9 | 45.9 | 45.9 | 45.9 | 45.9 | 45.9 | EC50 [1]: 0.75 µM; HCV TI [1]: 61.93; WNV TI (WNV (WN-hRuPac cells)): 2.06; CC50 (in vitro; HCV CC50): 46.5 µM
6 | COc1ccc2nc(C)cc(Nc3ccc(I)cc3)c2c1 [Compound 76] | 152 | 18.2 | 75.9 | 1.95 | 50.4 | 85.9 | 3.98 | 93.1 | 8.92 | 13.5 | 93.9 | 19.8 | 93.5 | 2.55 | 35.5 | 35.5 | 35.5 | 35.5 | 35.5 | 35.5 | EC50 [1]: 11.3 µM; HCV TI [1]: 1.9; WNV TI (WNV (WN-hRuPac cells)): 0.7; CC50 (in vitro; HCV CC50): 21.5 µM
7 | CCOC(=O)c1cnc2c(ccc3ccccc32)c1NCc1ccco1 [Compound 37] | 72.9 | 1.38 | 58 | 30.12 | 4.08 | 87.8 | 15.12 | 94.4 | 2.75 | 25.5 | 15.7 | 75 | 10.3 | ≥ 75 | 41.6 | 41.6 | 41.6 | 41.6 | 41.6 | 41.6 | EC50 [1]: 13 µM; HCV TI [1]: 4.31; WNV TI (WNV (WN-hRuPac cells)): 10.19; CC50 (in vitro; HCV CC50): 56 µM
8 | CCOC(=O)c1cnc2c(Cl)cccc2c1NCc1ccco1 [Compound 55] | 21.9 | 5.46 | 81.5 | 8.85 | 13 | 94.9 | 7.96 | 94.3 | 6.07 | 8.53 | 72.8 | 10.4 | 29.1 | ≥ 75 | 48.3 | 48.3 | 48.3 | 48.3 | 48.3 | 48.3 | WNV TI (WNV (WN-hRuPac cells)): 3.72; CC50 (in vitro; HCV CC50): ≥ 75 µM
9 | CCOC(=O)c1cnc2ccc(OC)cc2c1NCc1ccco1 [Compound 29] | 35.3 | 0.29 | 96.2 | 76.21 | 3.36 | 105 | 5.97 | 98.4 | 3.7 | 7.43 | 86.4 | 8.75 | -33.8 | 43 | 22.1 | 22.1 | 22.1 | 22.1 | 22.1 | 22.1 | WNV TI (WNV (WN-hRuPac cells)): 6.58; CC50 (in vitro; HCV CC50): ≥ 75 µM
10 | CCOC(=O)c1cnc2c(OC)cccc2c1NC(C)c1ccccc1 (centres unmarked) [Compound 71] | 80.1 | 4.47 | 93.3 | 11.03 | 13.9 | 24.7 | 0.84 | 71.2 | 58.5 | 37.2 | 90.1 | 29.5 | 49.1 | 5.52 | 49.3 | 49.3 | 49.3 | 49.3 | 49.3 | 49.3 | EC50 [1]: 8.95 µM; HCV TI [1]: 4.42; WNV TI (WNV (WN-hRuPac cells)): 3.55; CC50 (in vitro; HCV CC50): 39.6 µM
11 | COC(=O)c1ccc(Nc2cc(C)nc3ccc(Cl)cc23)cc1 [Compound 60] | 71.3 | ≥ 75 | 38.1 |  | 14.6 | 68.3 | 2.17 | 79.4 | 34.6 | 15.2 | 57.4 | 75 | 45.8 | 12 | ≥ 75 | ≥ 75 | ≥ 75 | ≥ 75 | ≥ 75 | ≥ 75 | EC50 [1]: 1.4 µM; HCV TI [1]: 32.5; WNV TI (WNV (WN-hRuPac cells)): 5.14; CC50 (in vitro; HCV CC50): 45.5 µM
12 | c1coc(CNc2c3c(nc4ccccc24)CCC3)c1 [Compound 10] | 34.6 | 2.51 | 99.6 | 23.29 | 9.79 | 81.2 | 4.06 | 86.2 | 14.4 | 24.7 | 38.1 | 43.2 | 15.9 | 69.9 | 58.5 | 58.5 | 58.5 | 58.5 | 58.5 | 58.5 | WNV TI (WNV (WN-hRuPac cells)): 5.97; CC50 (in vitro; HCV CC50): 47.6 µM
